Values after ≈ are worked out from the molar mass of the structure shown.
Legend:
[1] = system: L. donovani promastigotes; assay: Anti-leishmanial screening at 100 μM, parasite viability by microscopy; type: cell-based, Leishmania donovani; settings: L. donovani promastigotes
Experimental: L. donovani parasites (MHOM/IN/83/AG83) were maintained in vivo in BALB/c mice. Promastigotes were routinely cultured at 22°C in medium M199 supplemented with 10% heat inactivated fetal bovine serum (FBS, HiMedia Laboratories, Mumbai, India), penicillin 100 (IU/ml), streptomycin (100 μg/ml). Log phase promastigotes were sub-cultured every 72–96 h, the inoculum being 2 × 10^6 cells/ml (Afrin et al., [2002]).
Nitrostyrine series were screened for their antileishmanial activity against L. donovani promastigotes in vitro. Promastigotes of L. donovani (2 × 10^6 cells/mL) in M199 medium were incubated at 22°C for 72 h with each compound at a concentration of 100 μM. Amphotericin B (AmB) served as reference drug, 0.2% DMSO was used as solvent control. Parasites with media alone were taken as control. Parasite viability was determined microscopically after 72 h (Islamuddin et al., [2014b]).

[2] = system: Staphylococcus aureus ATCC 29213; assay: Broth microdilution antibacterial susceptibility (MIC/MBC); type: cell-based; settings: Staphylococcus aureus; for MIC: ATCC29213, 24 h, broth microdilution, 35°C, 24 h, read-out: MIC, Sa ATCC 29213; for MBC: ATCC29213, ≥99.9% reduction of original inoculum, read-out: MBC, Sa ATCC 29213
Excerpt: (§1) One reference each of the following species was used for their in vitro susceptibility to β-nitrostyrene in this study: Staphylococcus aureus ATCC 29213, Staphylococcus epidermidis ATCC 14990, Escherichia coli ATCC 25922, Pseudomonas aeruginosa ATCC 27853, Candida albicans ATCC 90028, Candida glabrata ATCC 90030, Aspergillus fumigatus ATCC 16424 and Aspergillus niger ATCC 16404. These strains were procured from the American Type Culture Collection (ATCC, Manassas, VA, USA).
(§2) The antibacterial and antifungal activities of the β-nitrostyrenes were performed by broth microdilution methods as per the guidelines of Clinical and Laboratory Standard Institute (Wayne, [1998], [2008a],[b],[c]) by using Mueller-Hinton broth (MHB; Becton-Dickinson, Cockeysville, MD, USA) supplemented with calcium (25 mg/L) and magnesium (12.5 mg/L) for bacterial strains while as RPMI 1640 medium with L-glutamine and without sodium bicarbonate, buffered to pH 7.0 with 0.165 M 3-(N-morpholino) propanesulfonic acid (MOPS; both from Sigma) was used for fungal strains. Stock solutions were prepared in 100% dimethyl sulfoxide (DMSO; Sigma; distilled water was used for ciprofloxacin), with a final DMSO concentration of 1% (vol. per vol.) and two-fold serial dilutions were prepared in media in amounts of 100 μL per well in 96-well U-bottom microtiter plates (Tarsons, Kolkata, India) to yield twice the final concentration required for testing, which ranged from 64 to 0.12 μg/mL for β-nitrostyrenes and 16 to 0.03 μg/mL for ciprofloxacin as well as amphotericin B. Stock inoculum suspensions of the bacteria, Candida species and Aspergillus species were prepared in sterile normal saline (0.85%) containing 0.05% polysorbate 20 (NST) from overnight (3 to 5-day old for Aspergillus species) strains grown on Trypticase soy agar (TSA; Becton-Dickinson) and potato dextrose agar (Difco Laboratories, Detroit, MI, USA) respectively at 35°C. Inocula were verified for each assay by plating onto agar plates for colony enumeration. These suspensions were further diluted in the respective test medium and a 100 μl volume of this diluted inoculum was added to each well of the plate, resulting in a final inoculum concentration of approximately 5 × 10^5 CFU/mL for bacter1ia, (Wayne, [2008a]) approximately 2.5 × 10^4 CFU/ml for Candida species (Pfaller et al., [2004]) while as 0.4 × 10^4 to 5 × 10^4 CFU/mL for Aspergillus species (Wayne, [2008c]). Untreated growth control, vehicle control (DMSO) and sterility control wells were included for each isolate tested. Ciprofloxacin and amphotericin B served as the standard drug controls for bacterial and fungal strains, respectively. The microtiter plates were incubated at 35°C for 24 h for bacterial strains and 48 h for fungal strains. The plates were read visually and the minimum inhibitory concentration (MIC) was defined as the lowest concentration of test sample that prevented visible growth with respect to the growth control.
(§3) The minimum bactericidal concentration (MBC) and minimum fungicidal concentration (MFC) were determined by plating 100 μl volumes on agar plates from the wells showing no visible growth (clear MIC well). The plates were incubated as described above in MIC measurements. […] All experiments were conducted twice in duplicates on separate occasions with freshly prepared inoculums and stock solutions.

[3] = system: Pseudomonas aeruginosa ATCC 27853; assay: as above; type: cell-based; settings: Pseudomonas aeruginosa; for MIC: ATCC27853, 24 h, broth microdilution, 35°C, 24 h, read-out: MIC, Pa ATCC 27853; for MBC: ATCC27853, ≥99.9% reduction of original inoculum, read-out: MBC, Pa ATCC 27853
Excerpt: as §1, §2, §3

[4] = system: Escherichia coli ATCC 25922; assay: as above; type: cell-based; settings: Escherichia coli; for MIC: ATCC25922, 24 h, broth microdilution, 35°C, 24 h, read-out: MIC, Ec ATCC 25922; for MBC: ATCC25922, ≥99.9% reduction of original inoculum, read-out: MBC, Ec ATCC 25922
Excerpt: as §1, §2, §3

[5] = system: Staphylococcus epidermidis ATCC 14990; assay: as above; type: cell-based; settings: Staphylococcus epidermidis; for MIC: ATCC14990, 24 h, broth microdilution, 35°C, 24 h, read-out: MIC, Se ATCC 14990; for MBC: ATCC14990, ≥99.9% reduction of original inoculum, read-out: MBC, Se ATCC 14990
Excerpt: as §1, §2, §3

[6] = system: Aspergillus fumigatus ATCC 16424; assay: Broth microdilution antifungal susceptibility (MIC/MFC); type: cell-based; settings: Aspergillus fumigatus; for MIC: ATCC16424, 48 h, broth microdilution, 35°C, 48 h, read-out: MIC, Af ATCC 16424; for MFC: ATCC16424, ≥99.9% reduction of original inoculum, read-out: MFC, Af ATCC 16424
Excerpt: as §1, §2, §3

[7] = system: Candida glabrata ATCC 90030; assay: as above; type: cell-based; settings: Nakaseomyces glabratus; for MIC: ATCC90030, 48 h, broth microdilution, 35°C, 48 h, read-out: MIC, Cg ATCC 90030; for MFC: ATCC90030, ≥99.9% reduction of original inoculum, read-out: MFC, Cg ATCC 90030
Excerpt: as §1, §2, §3

[8] = system: Aspergillus niger ATCC 16404; assay: as above; type: cell-based; settings: Aspergillus niger; for MIC: ATCC16404, 48 h, broth microdilution, 35°C, 48 h, read-out: MIC, An ATCC 16404; for MFC: ATCC16404, ≥99.9% reduction of original inoculum, read-out: MFC, An ATCC 16404
Excerpt: as §1, §2, §3

[9] = system: Candida albicans ATCC 90028; assay: as above; type: cell-based; settings: Candida albicans; for MIC: ATCC90028, 48 h, broth microdilution, 35°C, 48 h, read-out: MIC, Ca ATCC 90028; for MFC: ATCC90028, ≥99.9% reduction of original inoculum, read-out: MFC, Ca ATCC 90028
Excerpt: as §1, §2, §3

Compound | melting point | Anti-leishmanial activity, in words (SAR discussion) [1] | MIC [2] | MBC [2] | MIC [3] | MBC [3] | MIC [4] | MBC [4] | MIC [5] | MBC [5] | MIC [6] | MFC [6] | MIC [7] | MFC [7] | MIC [8] | MFC [8] | MIC [9] | MFC [9]
C/C(=C\[N+](=O)[O-])c1ccc(O)cc1 [Compound 25, 4-((E)-1-nitroprop-1-en-2-yl)phenol] | 88 to 90 °C | loss of activity |  |  |  |  |  |  |  |  |  |  |  |  |  |  |  | 
CC/C(=C\c1ccc(OC)c(OC)c1)[N+](=O)[O-] [Compound 24, 1,2-dimethoxy-4-((E)-2-nitrobut-1-enyl) benzene] | 78 to 80 °C | inactive |  |  |  |  |  |  |  |  |  |  |  |  |  |  |  | 
CCOc1cccc(/C=C/[N+](=O)[O-])c1O [Compound 27, 2-ethoxy-6-((E)-2-nitrovinyl) phenol] | 128 to 130 °C | inactive | 32 µg/mL (≈ 153 µM) | 32 µg/mL (≈ 153 µM) | > 64 µg/mL | > 64 µg/mL | > 64 µg/mL | > 64 µg/mL | 16 µg/mL (≈ 76.5 µM) | 16 µg/mL (≈ 76.5 µM) | 16 µg/mL (≈ 76.5 µM) | 16 µg/mL (≈ 76.5 µM) | 16 µg/mL (≈ 76.5 µM) | 16 µg/mL (≈ 76.5 µM) | 8 µg/mL (≈ 38.2 µM) | 8 µg/mL (≈ 38.2 µM) | 32 µg/mL (≈ 153 µM) | 32 µg/mL (≈ 153 µM)
C/C(=C\c1c[nH]c2ccccc12)[N+](=O)[O-] [Compound 29, 3-((E)-2-nitroprop-1-enyl)-1H-indole] | 182 to 184 °C |  | 16 µg/mL (≈ 79.1 µM) | 16 µg/mL (≈ 79.1 µM) | > 64 µg/mL | > 64 µg/mL | > 64 µg/mL | > 64 µg/mL | 8 µg/mL (≈ 39.6 µM) | 8 µg/mL (≈ 39.6 µM) | 16 µg/mL (≈ 79.1 µM) | 16 µg/mL (≈ 79.1 µM) | 8 µg/mL (≈ 39.6 µM) | 8 µg/mL (≈ 39.6 µM) | 8 µg/mL (≈ 39.6 µM) | 8 µg/mL (≈ 39.6 µM) | 64 µg/mL (≈ 316 µM) | 64 µg/mL (≈ 316 µM)
